# Measurements from paper PMC4038168 (Chemical communications (Cambridge, England), 2014).
# “Also recorded” adds a separate entry of the source.
# Assays:
# human FAAH (h-FAAH) = target: T1, human FAAH (h-FAAH) (Homo sapiens, UniProt O00519); experiment: human FAAH inhibition; type: biochemical
# T1 sequence (O00519 1-579): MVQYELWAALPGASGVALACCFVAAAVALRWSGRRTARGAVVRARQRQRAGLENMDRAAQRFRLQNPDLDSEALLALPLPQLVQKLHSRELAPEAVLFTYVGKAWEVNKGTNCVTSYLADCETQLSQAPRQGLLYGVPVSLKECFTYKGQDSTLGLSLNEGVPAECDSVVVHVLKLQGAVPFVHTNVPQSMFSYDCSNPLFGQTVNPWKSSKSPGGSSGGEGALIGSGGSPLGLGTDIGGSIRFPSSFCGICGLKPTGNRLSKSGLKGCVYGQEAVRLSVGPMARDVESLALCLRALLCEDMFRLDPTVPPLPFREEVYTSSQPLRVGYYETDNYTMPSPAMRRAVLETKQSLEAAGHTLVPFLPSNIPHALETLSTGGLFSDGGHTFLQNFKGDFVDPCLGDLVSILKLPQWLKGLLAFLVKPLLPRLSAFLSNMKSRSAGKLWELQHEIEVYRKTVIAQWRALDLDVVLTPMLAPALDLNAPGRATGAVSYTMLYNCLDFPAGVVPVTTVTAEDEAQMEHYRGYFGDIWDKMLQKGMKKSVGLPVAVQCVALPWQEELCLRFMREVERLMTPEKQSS
# rat FAAH (r-FAAH) = target: T2, rat FAAH (r-FAAH) (Rattus norvegicus, UniProt P97612); experiment: rat FAAH inhibition; type: biochemical
# T2 sequence (P97612 1-579): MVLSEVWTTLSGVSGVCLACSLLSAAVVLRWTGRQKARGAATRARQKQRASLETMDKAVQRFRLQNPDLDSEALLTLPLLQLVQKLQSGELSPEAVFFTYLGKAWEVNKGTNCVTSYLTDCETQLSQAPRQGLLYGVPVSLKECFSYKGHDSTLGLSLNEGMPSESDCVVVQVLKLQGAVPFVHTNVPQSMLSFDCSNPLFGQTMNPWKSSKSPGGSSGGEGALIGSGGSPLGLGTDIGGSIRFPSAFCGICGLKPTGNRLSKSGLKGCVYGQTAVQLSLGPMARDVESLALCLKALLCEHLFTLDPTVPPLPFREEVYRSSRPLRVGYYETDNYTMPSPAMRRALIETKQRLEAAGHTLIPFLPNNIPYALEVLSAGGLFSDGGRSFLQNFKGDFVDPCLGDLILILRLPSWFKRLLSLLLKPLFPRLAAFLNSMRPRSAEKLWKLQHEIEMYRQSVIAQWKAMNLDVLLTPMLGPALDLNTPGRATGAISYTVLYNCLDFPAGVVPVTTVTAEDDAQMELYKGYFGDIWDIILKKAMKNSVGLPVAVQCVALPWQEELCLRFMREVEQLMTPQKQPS
# cannabinoid receptor CB1 [1] = target: T3, cannabinoid receptor CB1 (Homo sapiens, UniProt P21554); experiment: CB1 functional assay; type: cell-based
# T3 sequence (P21554 whole entry): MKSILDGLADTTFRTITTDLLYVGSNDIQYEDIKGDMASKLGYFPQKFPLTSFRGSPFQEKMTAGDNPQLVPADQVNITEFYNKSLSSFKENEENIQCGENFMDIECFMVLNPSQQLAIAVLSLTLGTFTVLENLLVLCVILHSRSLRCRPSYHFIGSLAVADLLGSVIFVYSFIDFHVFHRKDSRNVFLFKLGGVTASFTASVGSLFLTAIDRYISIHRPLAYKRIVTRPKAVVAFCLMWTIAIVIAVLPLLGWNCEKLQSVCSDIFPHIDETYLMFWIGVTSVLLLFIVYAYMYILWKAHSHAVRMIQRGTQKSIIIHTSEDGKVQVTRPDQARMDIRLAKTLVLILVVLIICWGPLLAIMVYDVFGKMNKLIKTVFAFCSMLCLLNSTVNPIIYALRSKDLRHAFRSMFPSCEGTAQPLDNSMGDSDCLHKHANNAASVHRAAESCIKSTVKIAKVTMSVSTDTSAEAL
# cannabinoid receptor CB1 [2] = target: T3, cannabinoid receptor CB1; settings: cited from earlier work
# human DRD3 = human DRD3 (Homo sapiens, UniProt P35462); experiment: human DRD3 functional assay; type: cell-based
# human DRD3, sequence (P35462 whole entry): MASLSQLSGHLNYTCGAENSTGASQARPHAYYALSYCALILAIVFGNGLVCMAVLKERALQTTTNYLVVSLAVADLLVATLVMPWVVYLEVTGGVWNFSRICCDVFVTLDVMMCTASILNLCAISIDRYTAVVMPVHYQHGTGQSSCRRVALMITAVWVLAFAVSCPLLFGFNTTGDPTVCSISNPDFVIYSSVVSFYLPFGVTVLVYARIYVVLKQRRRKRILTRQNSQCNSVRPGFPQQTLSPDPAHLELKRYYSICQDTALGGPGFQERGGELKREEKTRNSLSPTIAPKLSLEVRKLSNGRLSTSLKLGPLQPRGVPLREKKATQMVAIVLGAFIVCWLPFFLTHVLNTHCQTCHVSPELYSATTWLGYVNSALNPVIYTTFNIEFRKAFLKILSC
EC50 (cannabinoid receptor CB1 [1]; read-out: CB1 EC50),SMILES,inhibitory activity on h-FAAH (in words) (human FAAH (h-FAAH)),inhibitory activity on r-FAAH (in words) (rat FAAH (r-FAAH)),CB1 activity (in words) (cannabinoid receptor CB1 [1]),effect on CB1 (in words) (cannabinoid receptor CB1 [2]),activity on DRD3 (in words) (human DRD3)
0.84 µM,"O=C(NCCCCN1CCN(c2cccc(Cl)c2Cl)CC1)c1ccc(-c2ccccn2)cc1 [Compound 2, CJB090]",did not show any significant inhibitory activity,did not show any significant inhibitory activity,rather potent CB1 agonist,–,–
–,"COc1ccccc1N1CCN(CCCCNC(=O)c2ccc3ccccc3c2)CC1 [Compound 3, BP-897]",did not show any significant inhibitory activity,did not show any significant inhibitory activity,completely devoid of CB1 activity; also recorded: did not show any activity,–,–
–,"NC(=O)c1cccc(-c2cccc(OC(=O)NC3CCCCC3)c2)c1 [Compound 5, URB597]",–,–,–,no effect,no activity
